Consider 28 compounds from patent publication US5858670A, “Bio-oligomer libraries and a method of use thereof” (The Arizona Board of Regents, priority 1996, dated 1999).

Where two headings read alike, the source gives them in different places. Where no end group is shown, it is not given here. [ ]: non-standard residue; d: D form. Ahx = NCCCCCC(=O)O; βAla = NCCC(=O)O

For one series, the target named is anti-v-mos MAb. The series can be described thus: solution phase binding studies with [3H]Ac-v-mos radioligand. Set-up: species or system mouse. As to conditions: competition with 20 nM [3H]Ac-v-mos for 10 μg/ml anti-v-mos MAb. The method, then:
Peptide ligand affinity for anti-v-mos mAb was measured by solution phase binding studies using [^3 H]acetyl v-mos peptide ([^3 H]Ac-v-mos) as the radioligand. The radioligand was prepared by N-terminal acetylation of v-mos peptide, prior to the deprotection of the side chains, with an equimolar amount of [^3 H]sodium acetate (specific activity=2.52 Ci/mmole, New England Nuclear, Boston, Mass.). […] Specific binding was defined as the difference between [^3 H]Ac-v-mos binding in-the presence (nonspecific) and absence (total) of 100 μM unlabelled v-mos peptide for each [^3 H]Ac-v-mos concentration. Bound radioligand was separated by centrifugation using a 10-fold excess (binding capacity relative to immunoglobulin used) of Protein-G Sepharose (Pharmacia) to precipitate the antibody. […] Over 50% of the total binding was specific in the inhibition studies. Saturation and inhibition binding constants were determined for single site binding by nonlinear regression analysis as previously described (Knapp and Yamamura, 1990, Life Sci. 46:1457-1463).

For series [1], the target named is anti-β-endorphin MAb. Briefly: anti-β-endorphin binding assay: peptide inhibition of [3H][Leu]enkephalin binding, solution phase. Particulars: for Ki: competition with 5.0 nM [3H][Leu]enkephalin.
Protocol: Peptide ligand binding affinities for the anti-β-endorphin monoclonal antibody were determined in solution phase. […] Specific binding was defined as the difference between binding measured in the presence or absence of 1.0 μM unlabelled [Leu]enkephalin. Bound radioligand was precipitated by the addition of a 10-fold excess of Protein-G Sepharose (Pharmacia) followed by an overnight incubation (23°-24° C.). The Protein-G Sepharose was collected by centrifugation (13,000×g for 5 minutes) and the pellets suspended in 250 μl 5% (v/v) acetic acid before transfer to vials for liquid scintillation counting. […] Peptide ligand inhibition curves were produced for eight concentrations of the peptide over a 400-fold range. Binding data for saturation and inhibition studies were analyzed by weighted-nonlinear regression methods using appropriate one site models reported by Knapp et al. (1990, J. Pharmacol. Exp. Ther. 255:1278-1282). Ki values for inhibition binding constants were calculated using the method of Cheng and Prusoff (1973, Biochem. Pharmacol. 22:3099-3102). Each Ki value was calculated from three to four independent determinations.
For series [2], the system named is anti-β-endorphin MAb. Briefly: library bead screening with biotinylated anti-β-endorphin MAb and streptavidin-alkaline phosphatase. In kind it is binding. As to conditions: recycled pentapeptide library, 16 hours with biotinylated MAb. The protocol:
Prior to using the same random peptide library to screen with anti-β-endorphin MAb, all the blue beads that had stained for streptavidin-alkaline phosphatase alone were removed. The remaining beads were then treated with 8M guanidine hydrochloride to remove any bound protein. This recycled library was then mixed with biotinylated anti-β-endorphin MAb (anti-β-endorphin, clone 3-E7, was obtained commercially from Boehringer Mannheim, Indianapolis, Ind.) for 16 hours. After extensive washing, a secondary step with streptavidin-alkaline phosphatase was used to trigger the staining reaction for the ELISA. […] Peptide analogues with various carboxyl terminus of these ligand leads were synthesized and their affinity (Ki) was determined using [^3 H]Leu-enkaphalin (New England Nuclear, Boston, Mass.) as the labelled ligand and the unlabelled peptides as the competing ligand (anti-β-endorphin assay, Section 10.1.2, supra).

The next series deals with T1, streptavidin (Streptomyces avidinii, UniProt P22629).
T1 construct: purchased Pierce, Rockford, Ill
T1 sequence (P22629 25-183, species assumed): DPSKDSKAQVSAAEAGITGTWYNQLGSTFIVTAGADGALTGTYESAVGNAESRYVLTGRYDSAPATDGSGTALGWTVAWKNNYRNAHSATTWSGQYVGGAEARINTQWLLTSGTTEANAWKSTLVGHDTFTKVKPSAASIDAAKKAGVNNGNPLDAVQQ
The series can be described thus: biotin inhibition of LHPQF-resin staining by streptavidin-alkaline phosphatase. In kind it is binding. The protocol: FIG. 8. […] A: 100 nM; B: 10 nM; C: 1 nM; and D: 0.1 nM biotin. Blank beads (β-Ala-aminocaproic acid-resin) were mixed 1:1 with the LHPQFD-resin prior to incubating with streptavidin-alkaline phosphatase to serve as an internal negative control.
The LHPQF-resin was then mixed with streptavidin-alkaline phosphatase in the presence of varying concentration of biotin. […] The inhibition study establishes that the HPQ consensus sequence binds to the biotin-binding site of streptavidin.

Series [3] in a line: UV/VIS irradiation of ONb-linked peptide resins, HPLC of released product. In kind it is physicochemical. Particulars: in water. The method, then:
Each peptide was irradiated for 1 and 3 hours with ultraviolet (UV) and visible (VIS) light in 0.3 ml of water or 3/7 mixture of chloroethanol:dichloromethane. A total of 16+16 experiments were run and assayed.
After exposure the supernatant was filtered off, lyophilized and re-dissolved to equal volumes of MeOH (0.3 ml). The products were analyzed on the HPLC.

The subject of series [4] is anti-v-mos monoclonal antibody. Briefly: PAM resin bead staining with anti-v-mos monoclonal antibody and labelled secondary antibody (Example 9). In kind it is binding, mouse. Particulars: 1 ug/ml MAb, secondary antibody 1:100, ABTS with H2O2, 15 minutes. The method, then:
Approximately 0.1 mg of the PAM resin/v-mos peptide described above was mixed with a hundred-fold excess of N^β -Fmoc-alanine PAM resin beads obtained from Bachem, Inc. Two ml of the purified monoclonal antibody (1 ug/ml) in PBS plus 0.1% Tween 20 were added to the peptide/support mixture and incubated at room temperature for 45 minutes with gentle mixing.
The beads were washed on a small polypropylene disposable column (obtained from Isolab) which retained the beads on a frit. The beads were then mixed with 2 ml of […] secondary antibody (1:100 dilution) for one hour. After washing, the beads were spread on a piece of glass filter and soaked in 2,2'-azinobis (3-ethylbenzthiozoline sulfonic acid) (ABTS) substrate with H2 O2. […] A small surrounding lighter green halo formed on the glass filter. […] The v-mos beads were readily distinguished.

For a further series, the system named is anti-v-mos. As to conditions: cited from earlier work.
Series [5] has as its system anti-v-mos monoclonal antibody. The series can be described thus: bead staining with anti-v-mos monoclonal antibody and alkaline phosphatase secondary antibody (Example 8). In kind it is binding, mouse. Particulars: 1 μg/ml MAb, secondary antibody 1:2000, BCIP/NBT, 15 minutes. The protocol:
The long v-mos beads were mixed with a thousand fold excess of the short v-mos beads. Two milliliters of the purified anti-v-mos monoclonal antibody (1 μg/ml) in PBS with 0.1% Tween 20 was added to the mixture of long and short v-mos beads and incubated at room temperature for one hour with gentle mixing. […]. The beads were then washed on a small polypropylene disposable column (obtained from Isolab) where the beads were retained by the frit. The beads were then mixed with 2 ml of a secondary antibody at 1:2000 dilution for one hour. After washing, the beads were poured into a polystyrene petri dish and allowed to settle. The supernatant was removed and a solution of 5-bromo-4-chloro-3-indoyl phosphate and nitro blue tetrazolium was gently added as a substrate.
This made it possible immediately to detect a single dark bead within a lawn of thousands of colorless beads. The distinction between the beads is illustrated in FIGS. 2 to 4, all of which are photographs at 40× magnification of the beads distributed in petri dishes. […] Accordingly, the beads that contained the peptide sequence of interest were readily distinguished and isolated from the other beads in the library.

The mark [6] stands for this setting: peptide with carboxyl terminus --NH2, read-out: Ki, Carboxyl Terminus --NH2.
Where [7] appears, read: peptide with carboxyl terminus --OH, read-out: Ki, Carboxyl Terminus --OH.

Regarding GRRAYE[βAla]-OH, the affinity on anti-v-mos MAb corresponds to a Ki of 15.1 ± 0.5 µM.

GFGSVY-NH2 returned a Ki on anti-v-mos MAb of 246 to 337 µM.

For YGGLS, the values for the inhibitory constant (Ki) at anti-β-endorphin MAb [1] (setting [6]) and on anti-β-endorphin MAb [1] (setting [7]) were 0.991 ± 0.052 µM and 0.726 ± 0.134 µM, respectively. Moreover, the “identified as ligand bead in the screening” value (shortened to “identified as ligand bead”) in the series on anti-β-endorphin MAb [2] is on record as “identified in this screening”.

Compound GRRGME[βAla]-NH2 displayed an inhibition constant Ki on anti-v-mos MAb of 24 ± 8.4 µM.

Take `O=C(O)CCCC[C@@H]1SC[C@@H]2NC(=O)N[C@@H]21` [Biotin, biotin]: the “inhibition of staining of LHPQF-resin” value against streptavidin (biotin 0.1 nM) is “no effect on the staining”; at streptavidin (biotin 1.0 nM) it was “partially inhibited the staining”; at streptavidin (biotin 10 nM) it was “partially inhibited the staining”; at streptavidin (biotin 100 nM), “completely blocked staining”. The “effect on staining of LHPQF-resin mimotope beads” value at streptavidin (biotin 100, 10, 1 and 0.1 nM (figure legend)) is “concentration-dependent inhibitory effect”.

On to GFGSVY[βAla]-OH, for which, at anti-v-mos MAb, the inhibition constant Ki lay in the range of 529 to 770 µM.

As to YGGMV, the values for the Ki at anti-β-endorphin MAb [1] (setting [6]) and at anti-β-endorphin MAb [1] (setting [7]) were 14 ± 1.11 µM and 8.78 ± 1.5 µM, respectively. Moreover, the “identified as ligand bead” value with anti-β-endorphin MAb [2] is “identified in this screening”.

As for GFGSVY[βAla]-NH2, the Ki on anti-v-mos MAb is 409 to 442 µM.

Consider “Fmoc-Trp-Tyr (OBu^t)-Phe-βNb-gAla-ACA-EDA-PepSyn K [peptide i]”, for which, in series [3], the cleavage product result is given as “cleaved to a single product”.

For the compound GRRPYG[βAla]-NH2, the inhibition constant (Ki) on anti-v-mos MAb is 20.5 ± 4.5 µM.

As for GRREGP[βAla]-NH2, at anti-v-mos MAb, the affinity, expressed as Ki, was 26.9 ± 6.2 µM.

“[^3 H][Leu]enkephalin [reference compound]” registered a Kd on anti-β-endorphin MAb [1] (saturation analysis, n=3, 5 radioligand concentrations 1.87-30 nM) of 0.00979 ± 0.00463 µM.

With YGGFQ, the Ki at anti-β-endorphin MAb [1] (setting [6]) was 0.0401 ± 0.006 µM; at anti-β-endorphin MAb [1] (setting [7]) it was 0.015 ± 0.0017 µM. Moreover, in the series on anti-β-endorphin MAb [2], the “identified as ligand bead” value was “identified in this screening”.

Take “Gly-Phe-Gly-Ser-Val-Tyr-aminocaproic acid-β-Ala-resin (GFGSVY-{Ahx-βAla-PAM resin}) [PAM resin/v-mos peptide beads]”: the “bead colour after staining” value in series [4] is recorded as “turned dark green”.

Turning to YGGFT, the Ki on anti-β-endorphin MAb [1] (setting [6]) was found to be 0.0652 ± 0.0168 µM; on anti-β-endorphin MAb [1] (setting [7]) it was 0.0369 ± 0.0077 µM. Moreover, in the series on anti-β-endorphin MAb [2], the “identified as ligand bead” value is “identified in this screening”.

Take GSVYKA [short v-mos peptide]: the “affinity of the antibody” value in the series with anti-v-mos was “negligible affinity”.

Regarding YGALQ, in the series with anti-β-endorphin MAb [2], the “identified as ligand bead” value was “identified in this screening”.

As for “Leu-Gly-Ser-Gly-Gly-Phe-Ser-Val-Tyr-Lys-Ala-aminocaproic acid-ethylenediamine resin [long v-mos beads]”, the “bead colour after staining” value in series [5] is “turned purple”.

For YGGLQ, the figures for the Ki at anti-β-endorphin MAb [1] (setting [6]) and on anti-β-endorphin MAb [1] (setting [7]) were 2.91 ± 0.695 µM and 1.98 ± 0.303 µM, respectively.

GFGSVY-OH: the Ki at anti-v-mos MAb was greater than 1000 µM.

For GRRGME-OH, the Ki on anti-v-mos MAb is greater than 100 µM.

On anti-v-mos MAb, GRRAYE[βAla]-NH2 registered an inhibition constant (Ki) of 9.02 to 20.4 µM.

GRRAYE-OH yielded a Ki on anti-v-mos MAb of 6.79 ± 2.31 µM.

“LGSGGFGSVYKA [residues 100 to 111 of the v-mos oncogene product, reference compound]”: the Ki on anti-v-mos MAb is 3.2 ± 0.4 µM.

As to GRRPYG-OH, the Ki on anti-v-mos MAb is greater than 1000 µM.

For the compound GRRAYE-NH2, the affinity at anti-v-mos MAb, expressed as Ki, was 24.7 ± 7 µM.

Take YGGFA: the Ki on anti-β-endorphin MAb [1] (setting [6]) is 0.072 ± 0.0164 µM; on anti-β-endorphin MAb [1] (setting [7]) it was 0.0329 ± 0.002 µM. For the same compound, the “identified as ligand bead” value with anti-β-endorphin MAb [2] is given as “identified in this screening”.

Turning to “GSVYKA [short v-mos beads, residue 106-111 of the v-mos gene product on polyacrylamide bead; negative control, reference compound]”, the “bead colour after staining” value in series [5] is given as “remained colorless”.
